Literature values, collected in US20200325234A1, “IMMUNE-BASED TREATMENT OF KRAS-VARIANT CANCER PATIENTS” (MIRA DX, INC., priority 2016, published 2020).
Where two headings read alike, the source gives them in different places.

Test system: KRAS-variant patients
[1] = KRAS-variant patients with non-small cell lung cancer (NSCLC)

In the case of `N.N.[Cl][Pt][Cl]` [cisplatin], the response to therapy (KRAS-variant patients with ovarian or head and neck cancer) is given as “resistance”.

For `C#Cc1cccc(Nc2ncnc3cc(OCCOC)c(OCCOC)cc23)c1` [erlotonib], the response to therapy [1] is listed as “resistance”.

For `CNC(=O)c1cc(Oc2ccc(NC(=O)Nc3ccc(Cl)c(C(F)(F)F)c3)cc2)ccn1` [sorafenib], the response to therapy [1] is given as “sensitivity”.
